Values quoted from earlier work, collected in US4390710A, “Catalyst system for manufacturing p-chlorophenyl-N-methyl carbamate” (PPG Industries, Inc., priority 1981, dated 1983).

Settings: organic herbicides such as isopropyl-N-(3-chlorophenyl) carbamate and isopropyl-N-phenyl carbamate

Structure (SMILES): CNC(=O)Oc1ccc(Cl)cc1 [p-chlorophenyl-N-methyl carbamate]
- extending the soil life of organic herbicides: capable of extending the soil life of many organic herbicides
